Experimental data: US9085561B2, “Cyclic urea- or lactam-substituted quinoxaline-type piperidines as ORL-1 modulators” (priority 2012, dated 2015)
Marks after values point to notes of the source that are not given here.

Columns and labels:
[1] = molecular target: human opioid receptor-like (ORL-1) (Homo sapiens, UniProt P41146); test: In vitro ORL-1 receptor [35S]GTPγS functional assay; assay type: biochemical
human CYP2D6 = human CYP2D6 (Homo sapiens, UniProt P10635); test: Cytochrome P450 2D6 inhibition (dextromethorphan O-demethylation, pooled human hepatic microsome)
Sequence of human CYP2D6 (P10635 whole entry): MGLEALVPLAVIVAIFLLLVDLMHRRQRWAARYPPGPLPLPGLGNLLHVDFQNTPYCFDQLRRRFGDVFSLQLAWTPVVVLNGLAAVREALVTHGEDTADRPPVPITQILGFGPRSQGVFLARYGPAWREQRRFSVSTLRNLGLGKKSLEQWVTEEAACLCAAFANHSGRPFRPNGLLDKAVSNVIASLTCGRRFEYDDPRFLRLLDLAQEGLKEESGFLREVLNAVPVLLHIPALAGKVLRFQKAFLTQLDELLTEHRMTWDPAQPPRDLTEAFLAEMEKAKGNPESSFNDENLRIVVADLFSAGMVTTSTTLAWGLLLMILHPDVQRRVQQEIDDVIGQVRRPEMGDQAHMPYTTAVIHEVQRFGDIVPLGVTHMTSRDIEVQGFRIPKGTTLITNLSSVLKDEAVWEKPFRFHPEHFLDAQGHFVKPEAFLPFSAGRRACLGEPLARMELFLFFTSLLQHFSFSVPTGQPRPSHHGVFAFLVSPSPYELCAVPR

[2] = system: mechanical hyperalgesia in rats subjected to partial sciatic nerve ligation; test: Seltzer model (partial sciatic nerve ligation) of neuropathic pain, paw pressure assay (PWT); assay type: in vivo, rat; details: for maximum analgesic efficacy of pregabalin (10 mg/kg) as fraction of % reversal of Compound B9a: 3 hours after day 1 administration

Sequence of human opioid receptor-like (ORL-1) (P41146 whole entry): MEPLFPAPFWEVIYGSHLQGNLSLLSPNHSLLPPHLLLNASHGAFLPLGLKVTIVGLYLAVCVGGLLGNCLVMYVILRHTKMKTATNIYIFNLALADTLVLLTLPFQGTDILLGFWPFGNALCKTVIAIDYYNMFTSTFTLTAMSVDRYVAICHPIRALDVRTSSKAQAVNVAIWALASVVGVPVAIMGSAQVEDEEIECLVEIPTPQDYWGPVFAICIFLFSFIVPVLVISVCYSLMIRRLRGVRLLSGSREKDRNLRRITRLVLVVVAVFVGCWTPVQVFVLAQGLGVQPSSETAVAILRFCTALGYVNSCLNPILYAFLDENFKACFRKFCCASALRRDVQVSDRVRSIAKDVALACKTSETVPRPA

SMILES: Nc1ccn(-c2nc3ccccc3n([C@H]3C[C@H]4CCC[C@@H](C3)N4[C@H]3C[C@@H]4CCC[C@@H](C4)C3)c2=O)c(=O)n1 [B5a(i), 1-((1R,1′R,3r,3′R,5S,5′S)-[3,9′-bi(9′-azabicyclo[3.3.1]nonan)]-3′-yl)-3-(4-amino-2-oxopyrimidin-1(2H)-yl)quinoxalin-2(1H)-one]
- EC50 [1]: > 20 µM
- IC50 (human CYP2D6): > 20 µM

SMILES: O=C(O)Cn1cccc(-c2nc3ccccc3n([C@H]3C[C@H]4CCC[C@@H](C3)N4C3CCCCCCCCC3)c2=O)c1=O [BB13c(iii), 2-(3-(4-((1R,3r,5S)-9-cyclodecyl-9-azabicyclo[3.3.1]nonan-3-yl)-3-oxo-3,4-dihydroquinoxalin-2-yl)-2-oxopyridin-1(2H)-yl)acetic acid]
- EC50 [1]: 0.101 ± 0.02 µM
- IC50 (human CYP2D6): > 20 µM

SMILES: O=c1cnn(-c2nc3ccccc3n([C@H]3C[C@H]4CC[C@@H](C3)N4[C@H]3C[C@@H]4CCC[C@@H](C4)C3)c2=O)c(=O)[nH]1 [Compound A9a, 2-(4-((1R,3R,5S)-8-((1R,3r,5S)-bicyclo[3.3.1]nonan-3-yl)-8-azabicyclo[3.2.1]octan-3-yl)-3-oxo-3,4-dihydroquinoxalin-2-yl)-1,2,4-triazine-3,5(2H,4H)-dione]
- EC50 [1]: 0.378 ± 0.055 µM
- IC50 (human CYP2D6): > 20 µM

SMILES: O=c1cnn(-c2nc3ccccc3n([C@H]3C[C@H]4CCC[C@@H](C3)N4[C@H]3C[C@@H]4CCC[C@@H](C4)C3)c2=O)c(=O)[nH]1 [Compound B9a]
- reversal compared with the pregabalin control ([2]; 1, 3, or 10 mg/kg, all measured time-points on the first day of administration): more effective reversal than the pregabalin control
- effects against mechanical hyperalgesia ([2]; once daily administration (3 or 10 mg/kg) for seven days, rats with partial sciatic nerve ligation): statistically significant effects
- % Reversal [mean] ([2]; rat Seltzer model, oral 1 mg/kg, 1 h after administration (day 1)): 27.0* %
- % Reversal [mean] ([2]; rat Seltzer model, oral 1 mg/kg, 3 h after administration (day 1), 1 mg/kg): 37.0%
- % Reversal [mean] ([2]; rat Seltzer model, oral 1 mg/kg, 5 h after administration (day 1)): 27.0* %
- % Reversal [mean] ([2]; rat Seltzer model, oral 1 mg/kg, pre-administration): 0%
- % Reversal [mean] ([2]; rat Seltzer model, oral 3 mg/kg once daily, 1 h after administration (day 4)): 40.8** %
- % Reversal [mean] ([2]; rat Seltzer model, oral 3 mg/kg once daily, 1 h after administration (day 7)): 47.7** %
- % Reversal [mean] ([2]; rat Seltzer model, oral 3 mg/kg once daily, 3 h after administration (day 4), 3 mg/kg): 46.2%
- % Reversal [mean] ([2]; rat Seltzer model, oral 3 mg/kg once daily, 3 h after administration (day 7), 3 mg/kg): 55.2%
- % Reversal [mean] ([2]; rat Seltzer model, oral 3 mg/kg once daily, 5 h after administration (day 4)): 36.9** %
- % Reversal [mean] ([2]; rat Seltzer model, oral 3 mg/kg once daily, 5 h after administration (day 7)): 42.2** %
- % Reversal [mean] ([2]; rat Seltzer model, oral 3 mg/kg, 1 h after administration (day 1)): 33.1** %
- % Reversal [mean] ([2]; rat Seltzer model, oral 3 mg/kg, 3 h after administration (day 1), 3 mg/kg): 46.2%
- % Reversal [mean] ([2]; rat Seltzer model, oral 3 mg/kg, 5 h after administration (day 1)): 34.6** %
- % Reversal [mean] ([2]; rat Seltzer model, oral 3 mg/kg, pre-administration): 0%
- % Reversal [mean] ([2]; rat Seltzer model, oral 10 mg/kg once daily, 1 h after administration (day 4)): 53.8** %
- % Reversal [mean] ([2]; rat Seltzer model, oral 10 mg/kg once daily, 1 h after administration (day 7)): 50.0** %
- % Reversal [mean] ([2]; rat Seltzer model, oral 10 mg/kg once daily, 3 h after administration (day 4), 10 mg/kg): 64.2%
- % Reversal [mean] ([2]; rat Seltzer model, oral 10 mg/kg once daily, 3 h after administration (day 7), 10 mg/kg): 63.5%
- % Reversal [mean] ([2]; rat Seltzer model, oral 10 mg/kg once daily, 5 h after administration (day 4)): 47.7** %
- % Reversal [mean] ([2]; rat Seltzer model, oral 10 mg/kg once daily, 5 h after administration (day 7)): 42.2** %
- % Reversal [mean] ([2]; rat Seltzer model, oral 10 mg/kg, 1 h after administration (day 1)): 49.2** %
- % Reversal [mean] ([2]; rat Seltzer model, oral 10 mg/kg, 3 h after administration (day 1), 10 mg/kg): 61.5%
- % Reversal [mean] ([2]; rat Seltzer model, oral 10 mg/kg, 5 h after administration (day 1)): 46.9** %
- % Reversal [mean] ([2]; rat Seltzer model, oral 10 mg/kg, pre-administration): 0%
- tolerance development with repeated administration ([2]; repeated administration for 7 days, rat Seltzer model): lack of tolerance development
- IC50 (human CYP2D6): > 20 µM

SMILES: Cc1nn(-c2nc3ccccc3n([C@H]3C[C@H]4CCC[C@@H](C3)N4[C@H]3C[C@@H]4CCC[C@@H](C4)C3)c2=O)c(=O)[nH]c1=O [Compound B10a, 2-(4-((1R,1′R,3r,3′R,5S,5′S)-[3,9′-bi(9′-azabicyclo[3.3.1]nonan)]-3′-yl)-3-oxo-3,4-dihydroquinoxalin-2-yl)-6-methyl-1,2,4-triazine-3,5(2H,4H)-dione]
- EC50 [1]: > 20 µM
- IC50 (human CYP2D6): > 20 µM

SMILES: O=c1ccn(-c2nc3ccccc3n([C@H]3C[C@H]4CCC[C@@H](C3)N4[C@H]3C[C@@H]4CCC[C@@H](C4)C3)c2=O)c(=O)[nH]1 [Compound B13a, 1-(4-((1R,1′R,3r,3′R,5S,5′S)-[3,9′-bi(9′-azabicyclo[3.3.1]nonan)]-3′-yl)-3-oxo-3,4-dihydroquinoxalin-2-yl)pyrimidine-2,4(1H,3H)-dione]
- EC50 [1]: > 20 µM
- IC50 (human CYP2D6): > 20 µM

SMILES: O=C1CN(c2nc3ccccc3n([C@H]3C[C@H]4CCC[C@@H](C3)N4[C@H]3C[C@@H]4CCC[C@@H](C4)C3)c2=O)C(=O)N1 [Compound B17a, 1-(4-((1R,1′R,3r,3′R,5S,5′S)-[3,9′-bi(9′-azabicyclo[3.3.1]nonan)]-3′-yl)-3-oxo-3,4-dihydroquinoxalin-2-yl)imidazolidine-2,4-dione]
- EC50 [1]: > 20 µM
- IC50 (human CYP2D6): > 20 µM

SMILES: CC1(C)C(=O)NC(=O)N1c1nc2ccccc2n([C@H]2C[C@H]3CCC[C@@H](C2)N3[C@H]2C[C@@H]3CCC[C@@H](C3)C2)c1=O [Compound B19a, 1-(4-((1R,1′R,3r,3′R,5S,5′S)-[3,9′-bi(9′-azabicyclo[3.3.1]nonan)]-3′-yl)-3-oxo-3,4-dihydroquinoxalin-2-yl)-5,5-dimethylimidazolidine-2,4-dione]
- EC50 [1]: > 20 µM
- IC50 (human CYP2D6): > 20 µM

SMILES: O=C1CNC(=O)N1c1nc2ccccc2n([C@H]2C[C@H]3CCC[C@@H](C2)N3[C@H]2C[C@@H]3CCC[C@@H](C3)C2)c1=O [Compound B20a, 3-(4-((1R,1′R,3r,3′R,5S,5′S)-[3,9′-bi(9′-azabicyclo[3.3.1]nonan)]-3′-yl)-3-oxo-3,4-dihydroquinoxalin-2-yl)imidazolidine-2,4-dione]
- EC50 [1]: > 20 µM
- IC50 (human CYP2D6): > 20 µM

SMILES: O=c1[nH]cnn1-c1nc2ccccc2n([C@H]2C[C@H]3CCC[C@@H](C2)N3[C@H]2C[C@@H]3CCC[C@@H](C3)C2)c1=O [Compound B23a, 1-((1R,3r,3′R,5S,5′S)-[3,9′-bi(9′-azabicyclo[3.3.1]nonan)]-3′-yl)-3-(5-oxo-4,5-dihydro-1H-1,2,4-triazol-1-yl)quinoxalin-2(1H)-one]
- EC50 [1]: > 20 µM
- IC50 (human CYP2D6): 17.8 µM

SMILES: O=c1cnn(-c2nc3ccccc3n([C@H]3C[C@H]4CCC[C@@H](C3)N4C3CCCCCCC3)c2=O)c(=O)[nH]1 [Compound H9c, 2-(4-((1R,3r,5S)-9-cyclooctyl-9-azabicyclo[3.3.1]nonan-3-yl)-3-oxo-3,4-dihydroquinoxalin-2-yl)-1,2,4-triazine-3,5(2H,4H)-dione]
- EC50 [1]: 0.376 ± 0.016 µM
- IC50 (human CYP2D6): > 20 µM

SMILES: CC(C)C[C@H](CN)CC(=O)O [Pregabalin, pregabalin, reference compound]
- % Reversal [mean] ([2]; rat Seltzer model, positive control column, oral 10 mg/kg, 3 h after administration (day 1), 10 mg/kg): 28.0** %
- % Reversal [mean] ([2]; rat Seltzer model, positive control column, oral 10 mg/kg, 3 h after administration (day 1), listed as pregabalin, 10 mg/kg): 28.0%
- % Reversal [mean] ([2]; rat Seltzer model, positive control, oral 10 mg/kg, 1 h after administration (day 1)): 17.0%
- % Reversal [mean] ([2]; rat Seltzer model, positive control, oral 10 mg/kg, 5 h after administration (day 1)): 15.0%
- % Reversal [mean] ([2]; rat Seltzer model, positive control, oral 10 mg/kg, pre-administration): 0%
- maximum analgesic efficacy of pregabalin (10 mg/kg) as fraction of % reversal of Compound B9a ([2]; versus B9a 1 mg/kg): about 0.76
- maximum analgesic efficacy of pregabalin (10 mg/kg) as fraction of % reversal of Compound B9a ([2]; versus B9a 3 mg/kg): about 0.61
- maximum analgesic efficacy of pregabalin (10 mg/kg) as fraction of % reversal of Compound B9a ([2]; versus B9a 10 mg/kg): about 0.46

SMILES: O=c1cncc(-c2nc3ccccc3n([C@H]3C[C@H]4CCC[C@@H](C3)N4[C@H]3C[C@@H]4CCC[C@@H](C4)C3)c2=O)[nH]1 [R3a(i), 1-((1R,1′R,3r,3′R,5S,5′S)-[3,9′-bi(9′-azabicyclo[3.3.1]nonan)]-3′-yl)-3-(6-oxo-1,6-dihydropyrazin-2-yl)quinoxalin-2(1H)-one]
- IC50 (human CYP2D6): > 20 µM

SMILES: O=c1[nH]nc(-c2nc3ccccc3n([C@H]3C[C@H]4CCC[C@@H](C3)N4[C@H]3C[C@@H]4CCC[C@@H](C4)C3)c2=O)[nH]1 [R6a(i)(i), 1-((1R,1′R,3r,3′R,5S,5′S)-[3,9′-bi(9′-azabicyclo[3.3.1]nonan)]-3′-yl)-3-(5-oxo-4,5-dihydro-1H-1,2,4-triazol-3-yl)quinoxalin-2(1H)-one]
- IC50 (human CYP2D6): > 20 µM

SMILES: O=C(O)Cn1cccc(-c2nc3ccccc3n([C@H]3C[C@H]4CCC[C@@H](C3)N4[C@H]3C[C@@H]4CCC[C@@H](C4)C3)c2=O)c1=O [R15a(iii), 2-(3-(4-((1R,1′R,3r,3′R,5S,5′S)-[3,9′-bi(9′-azabicyclo[3.3.1]nonan)]-3′-yl)-3-oxo-3,4-dihydroquinoxalin-2-yl)-2-oxopyridin-1(2H)-yl)acetic acid]
- IC50 (human CYP2D6): > 20 µM

SMILES: C[C@@H]1C[C@@H]2C[C@H](C1)C[C@@H](N1[C@@H]3CCC[C@H]1C[C@@H](n1c(=O)c(-c4cc(C(=O)O)c[nH]c4=O)nc4ccccc41)C3)C2 [R28a(i), 5-(4-((1R,1′R,3r,3′R,5S,5′S,7S)-7-methyl-[3,9′-bi(9′-azabicyclo[3.3.1]nonan)]-3′-yl)-3-oxo-3,4-dihydroquinoxalin-2-yl)-6-oxo-1,6-dihydropyridine-3-carboxylic acid]
- IC50 (human CYP2D6): > 20 µM

SMILES: CC1(C)[C@H]2CC[C@@H](CCN3[C@@H]4CCC[C@H]3C[C@@H](n3c(=O)c(-c5ccc[nH]c5=O)nc5ccccc53)C4)[C@@H]1C2 [U55a(i), 1-((1R,3S,5S)-9-(2-((1S,2S,5S)-6,6-dimethylbicyclo[3.1.1]heptan-2-yl)ethyl)-9-azabicyclo[3.3.1]nonan-3-yl)-3-(2-oxo-1,2-dihydropyridin-3-yl)quinoxalin-2(1H)-one]
- IC50 (human CYP2D6): > 20 µM
